This note sets out measurements from patent publication US7323597B2, “Method for the production of diaminoxylene by continuous hydrogenation of liquid phthalonitrile” (BASF Aktiengesellschaft, priority 2003, dated 2008).

This series is described as follows: Solubility of IPN in MXDA. The class given is physicochemical. To be noted: in MXDA (meta-xylylenediamine) as solvent, at 70° C.

As for `N#Cc1cccc(C#N)c1` [IPN, 1,3-dicyanobenzene], the “solubility of IPN in MXDA” value was “approx. 20 % by weight”.
